Results as given in US20230263822A1, “MODULATION OF FACTOR 11 EXPRESSION” (Ionis Pharmaceuticals, Inc., priority 2008, published 2023).
Strand notation (5' to 3'): a small letter for the sugar, then the base; units joined by * are phosphorothioate-linked, units joined directly phosphodiester-linked; [ ] holds rarer units or linkages, { } end groups; capitals alone tell only the bases. e = 2'-O-(2-methoxyethyl) (MOE); [5mC] = 5-methylcytosine; d = 2'-deoxy (DNA)

What was measured:
[1] = Tolerability in CD1 mice: kidney function (Example 43); assay type: in vivo; details: 50 mg/kg s.c. twice per week for 6 weeks, plasma
fibrinogen = test: Fibrinogen assay (Example 45); assay type: in vivo, cynomolgus monkeys; details: plasma, escalating dose regimen
Experimental: (§1) Groups, each consisting of two male and three female monkeys, were injected subcutaneously with ISIS 416838, ISIS 416850, ISIS 416858, ISIS 416864, or ISIS 417002 in escalating doses. Antisense oligonucleotide was administered to the monkeys at 5 mg/kg three times per a week for week 1; 5 mg/kg twice per week for weeks 2 and 3; 10 mg/kg three times per week for week 4; 10 mg/kg twice per week for weeks 5 and 6; 25 mg/kg three times per week for week 7; and 25 mg/kg twice per week for weeks 8, 9, 10, 11, and 12. One control group, consisting of two male and three female monkeys, was injected subcutaneously with PBS according to the same dosing regimen. An additional experimental group, consisting of two male and three female monkeys, was injected subcutaneously with ISIS 416850 in a chronic, lower dose regimen. Antisense oligonucleotide was administered to the monkeys at 5 mg/kg three times per week for week 1; 5 mg/kg twice per week for week 2 and 3; 10 mg/kg three times per week for week 4; and 10 mg/kg twice per week for weeks 5 to 12. Body weights were measured weekly. Blood samples were collected 14 days and 5 days before the start of treatment and subsequently once per week for Factor 11 protein activity analysis in plasma, fibrinogen measurement, PT and aPTT measurements, bleeding times, and measurement of various hematologic factors. On day 85, the monkeys were euthanized by exsanguination while under deep anesthesia, and organs harvested for further analysis.
Nine parts of fresh monkey plasma was collected into one part of trisodium citrate. The samples were evaluated of fibrinogen content using an ACL 9000 coagulation instrument (Instrumentation Laboratory, Italy). The ISIS oligonucleotide, ISIS 416850, given with the chronic dose regimen is distinguished from the other oligonucleotides with an asterisk (*).

platelet aggregation = test: Platelet aggregation assay, ADP and/or collagen (Example 45); assay type: in vivo, cynomolgus monkeys; details: escalating dose regimen
Experimental: as §1
Platelet aggregation was initiated by adding 1 mmol/L ADP and/or 3 μg collagen (depending on the collection day, as outlined in Table 121) to plasma samples, and was allowed to proceed for 10 minutes. Aggregation was characterized by recording the change in the electrical resistance or impedance and the change in the initial slope of aggregation after platelet shape change. The aggregation test was performed twice per sample on each collection day and the average value was taken. The ISIS oligonucleotide, ISIS 416850, given with the chronic dose regimen is distinguished from the other oligonucleotides with an asterisk (*).

[2] = Tolerability in CD1 mice: liver function, ALT, AST, bilirubin, albumin (Example 33); details: plasma, 50 mg/kg s.c. twice a week
Factor 11 activity = test: Factor 11 protein activity, F11 assay based on clotting time (Example 45); assay type: in vivo, cynomolgus monkeys; details: escalating dose regimen
Experimental: as §1
Blood samples were collected at various time points and Factor 11 proenzyme was measured using a F11 assay based on clotting time. Clotting times were determined in duplicate with a ST4 semi-automated coagulation instrument (Diagnostica Stago, NJ). Thirty μl of citrated sample plasma diluted 1/20 in HEPES-NaCl buffer with BSA was incubated with 30 μl aPTT reagent (Automated aPTT, Organon Technika, NC) and 30 μl of citrated plasma deficient of Factor 11 (George King Bio-Medical Inc.) at 37° C. for 5 min, followed by the addition of 30 μl of 25 mM CaCl2) to initiate clotting. Results were interpolated on a standard curve of serially diluted citrated control plasma.
Results are presented in Table 118 as percent inhibition of Factor 11 activity, relative to PBS control. The ISIS oligonucleotide, ISIS 416850, given with the chronic dose regimen is distinguished from the other oligonucleotides with an asterisk (*).

[3] = Body and organ weights of cynomolgus monkeys (Example 45); assay type: in vivo; details: for body weights: escalating dose regimen;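 for Organ weights, Kidney: absolute organ weight in grams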;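 for Organ weights, Liver: absolute organ weight in grams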;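 for Organ weights, Spleen: absolute organ weight in grams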
Experimental: as §1
Body weights were taken once weekly throughout the dosing regimen. […] Organ weights were taken after the animals were euthanized and livers, kidneys and spleens were harvested and weighed. […] The ISIS oligonucleotide, ISIS 416850, given with the chronic dose regimen is distinguished from the other oligonucleotides with an asterisk (*).

[4] = after the animals were euthanized

ISIS 449708: 3-8-3, 4-8-4, 2-10-2, 3-10-3 or 4-10-4 MOE microwalk gapmer (Table 46) (antisense eA*e[5mC]*eA*dG*dT*dT*dT*d[5mC]*dT*dG*dG*e[5mC]*eA*eG)
BUN [1]: 28 mg/dL | Creatinine [1]: 0.2 mg/dL

ISIS 449710: 3-8-3, 4-8-4, 2-10-2, 3-10-3 or 4-10-4 MOE microwalk gapmer (Table 46) (antisense e[5mC]*eA*e[5mC]*dA*dG*dT*dT*dT*d[5mC]*dT*dG*dG*d[5mC]*eA*eG*eG)
BUN [1]: 29 mg/dL | Creatinine [1]: 0.2 mg/dL

ISIS 417002: MOE gapmer, nucleobases 1275 to 1318 of SEQ ID NO: 1 (Table 8) (antisense GGTGCACAGTTTCTGGCAGG; MOE gapmer, wing and gap sizes not given here)
fibrinogen levels (fibrinogen; day 8): 221 mg/dL | fibrinogen levels (fibrinogen; day 15): 195 mg/dL | fibrinogen levels (fibrinogen; day 22): 199 mg/dL | fibrinogen levels (fibrinogen; day 29): 199 mg/dL | fibrinogen levels (fibrinogen; day 36): 191 mg/dL | fibrinogen levels (fibrinogen; day 43): 187 mg/dL | fibrinogen levels (fibrinogen; day 50): 236 mg/dL | fibrinogen levels (fibrinogen; day 57): 201 mg/dL | fibrinogen levels (fibrinogen; day 64): 236 mg/dL | fibrinogen levels (fibrinogen; day 71): 228 mg/dL | fibrinogen levels (fibrinogen; day 78): 221 mg/dL | fibrinogen levels (fibrinogen; day 85): 224 mg/dL | fibrinogen levels (fibrinogen; day −5): 222 mg/dL | fibrinogen levels (fibrinogen; day −14): 291 mg/dL | platelet aggregation (platelet aggregation; day 15 (with ADP)): 16 Ohms | platelet aggregation (platelet aggregation; day 36 (with ADP)): 13.9 Ohms | platelet aggregation (platelet aggregation; day 43 (with collagen)): 19 Ohms | platelet aggregation (platelet aggregation; day 57 (with ADP)): 18 Ohms | platelet aggregation (platelet aggregation; day 64 (with collagen)): 18 Ohms | platelet aggregation (platelet aggregation; day 78 (with ADP)): 18 Ohms | platelet aggregation (platelet aggregation; day 85 (with ADP)): 22 Ohms | platelet aggregation (platelet aggregation; day 85 (with collagen)): 24 Ohms | platelet aggregation (platelet aggregation; day −5 (with collagen)): 21 Ohms | ALT ([2]; 2 weeks): 71 IU/L | AST ([2]; 2 weeks): 96 IU/L | Albumin ([2]; 2 weeks): 3.2 | Bilirubin ([2]; 2 weeks): 0.50 mg/dL | ALT ([2]; 4 weeks): 138 IU/L | AST ([2]; 4 weeks): 87 IU/L | Albumin ([2]; 4 weeks): 3.4 | Bilirubin ([2]; 4 weeks): 0.25 mg/dL | ALT ([2]; 6 weeks): 2579 IU/L | AST ([2]; 6 weeks): 1166 IU/L | Albumin ([2]; 6 weeks): 3.4 | Bilirubin ([2]; 6 weeks): 0.29 mg/dL | percent inhibition of Factor 11 activity, relative to PBS control (Factor 11 activity; day 8): 0% | percent inhibition of Factor 11 activity, relative to PBS control (Factor 11 activity; day 15): 4% | percent inhibition of Factor 11 activity, relative to PBS control (Factor 11 activity; day 22): 2% | percent inhibition of Factor 11 activity, relative to PBS control (Factor 11 activity; day 29): 8% | percent inhibition of Factor 11 activity, relative to PBS control (Factor 11 activity; day 36): 8% | percent inhibition of Factor 11 activity, relative to PBS control (Factor 11 activity; day 43): 9% | percent inhibition of Factor 11 activity, relative to PBS control (Factor 11 activity; day 50): 13% | percent inhibition of Factor 11 activity, relative to PBS control (Factor 11 activity; day 57): 24% | percent inhibition of Factor 11 activity, relative to PBS control (Factor 11 activity; day 64): 26% | percent inhibition of Factor 11 activity, relative to PBS control (Factor 11 activity; day 71): 30% | percent inhibition of Factor 11 activity, relative to PBS control (Factor 11 activity; day 78): 22% | percent inhibition of Factor 11 activity, relative to PBS control (Factor 11 activity; day 85): 23% | percent inhibition of Factor 11 activity, relative to PBS control (Factor 11 activity; day −5): 0% | percent inhibition of Factor 11 activity, relative to PBS control (Factor 11 activity; day −14): 0% | Organ weights, Kidney [3, 4]: 15 g | Organ weights, Liver [3, 4]: 51 g | Organ weights, Spleen [3, 4]: 5 g | body weights ([3]; day 1): 2640 g | body weights ([3]; day 8): 2523 g | body weights ([3]; day 15): 2571 g | body weights ([3]; day 22): 2617 g | body weights ([3]; day 29): 2622 g | body weights ([3]; day 36): 2631 g | body weights ([3]; day 43): 2630 g | body weights ([3]; day 50): 2652 g | body weights ([3]; day 57): 2654 g | body weights ([3]; day 64): 2598 g | body weights ([3]; day 71): 2727 g | body weights ([3]; day 78): 2570 g

ISIS 449709: 3-8-3, 4-8-4, 2-10-2, 3-10-3 or 4-10-4 MOE microwalk gapmer (Table 46) (antisense eG*e[5mC]*eA*e[5mC]*dA*dG*dT*dT*dT*d[5mC]*dT*dG*dG*d[5mC]*eA*eG*eG*e[5mC])
BUN [1]: 34 mg/dL | Creatinine [1]: 0.3 mg/dL

ISIS 449711: 3-8-3, 4-8-4, 2-10-2, 3-10-3 or 4-10-4 MOE microwalk gapmer (Table 46) (antisense eA*e[5mC]*dA*dG*dT*dT*dT*d[5mC]*dT*dG*dG*d[5mC]*eA*eG)
BUN [1]: 26 mg/dL | Creatinine [1]: 0.2 mg/dL

ISIS 449707: 3-8-3, 4-8-4, 2-10-2, 3-10-3 or 4-10-4 MOE microwalk gapmer (Table 46) (antisense e[5mC]*eA*e[5mC]*eA*dG*dT*dT*dT*d[5mC]*dT*dG*dG*e[5mC]*eA*eG*eG)
BUN [1]: 27 mg/dL | Creatinine [1]: 0.2 mg/dL
